{"source": "patent US9981959B2", "about": "“Thiazolyl and oxazolyl urea, thiourea, guanidine and cyanoguanidine compounds as TrkA kinase inhibitors” (Array BioPharma Inc., priority 2012, dated 2018)", "assay_in_all_cases": "KinaseProfiler off-target kinase profiling", "type_in_all_cases": "biochemical", "settings_in_all_cases": "10 μM, ATP near Km", "key": {"AKT2": {"target": "T1, AKT2 (Homo sapiens, UniProt P31751)", "T1 construct": "purchased Millipore (KinaseProfiler service)", "procedure,_shortened": "(§1)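 Compound was screened once at 10 μM against the full commercial kinase panel. ATP was held near each kinase's Km, duplicates were run, and activity was expressed as average percent of control.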"}, "AKT3": {"target": "T2, AKT3 (Homo sapiens, UniProt Q9Y243)", "T2 construct": "purchased Millipore (KinaseProfiler service)", "procedure,_shortened": "as §1"}, "BTK": {"target": "T3, BTK (Homo sapiens, UniProt Q06187)", "T3 construct": "purchased Millipore (KinaseProfiler service)", "procedure,_shortened": "as §1"}, "CAMK1": {"target": "T4, CAMK1 (Homo sapiens, UniProt Q14012)", "T4 construct": "purchased Millipore (KinaseProfiler service)", "procedure,_shortened": "as §1"}, "CAMK2g": {"target": "T5, CAMK2g (Homo sapiens, UniProt Q13555)", "T5 construct": "purchased Millipore (KinaseProfiler service)", "procedure,_shortened": "as §1"}, "CDK5/p35": {"target": "T6, CDK5/p35 (Homo sapiens, UniProt Q00535)", "T6 construct": "purchased Millipore, Inc. (KinaseProfiler service)", "procedure,_shortened": "as §1"}, "CK1_y": {"tested_on": "CK1_y", "procedure,_shortened": "as §1"}, "CK2alpha2": {"target": "T7, CK2alpha2 (Homo sapiens, UniProt P19784)", "T7 construct": "purchased Millipore, Inc. (KinaseProfiler service)", "procedure,_shortened": "as §1"}, "DAPK1": {"target": "T8, DAPK1 (Homo sapiens, UniProt P53355)", "T8 construct": "purchased Millipore, Inc. (KinaseProfiler service)", "procedure,_shortened": "as §1"}, "DCAMKL2": {"target": "T9, DCAMKL2 (Homo sapiens, UniProt Q8N568)", "T9 construct": "purchased Millipore, Inc. (KinaseProfiler service)", "procedure,_shortened": "as §1"}, "DDR2": {"target": "T10, DDR2 (Homo sapiens, UniProt Q16832)", "T10 construct": "purchased Millipore, Inc. (KinaseProfiler service)", "procedure,_shortened": "as §1"}, "EphA1": {"target": "T11, EphA1 (Homo sapiens, UniProt P21709)", "T11 construct": "purchased Millipore, Inc. (KinaseProfiler service)", "T11 sequence (P21709 26-976)": "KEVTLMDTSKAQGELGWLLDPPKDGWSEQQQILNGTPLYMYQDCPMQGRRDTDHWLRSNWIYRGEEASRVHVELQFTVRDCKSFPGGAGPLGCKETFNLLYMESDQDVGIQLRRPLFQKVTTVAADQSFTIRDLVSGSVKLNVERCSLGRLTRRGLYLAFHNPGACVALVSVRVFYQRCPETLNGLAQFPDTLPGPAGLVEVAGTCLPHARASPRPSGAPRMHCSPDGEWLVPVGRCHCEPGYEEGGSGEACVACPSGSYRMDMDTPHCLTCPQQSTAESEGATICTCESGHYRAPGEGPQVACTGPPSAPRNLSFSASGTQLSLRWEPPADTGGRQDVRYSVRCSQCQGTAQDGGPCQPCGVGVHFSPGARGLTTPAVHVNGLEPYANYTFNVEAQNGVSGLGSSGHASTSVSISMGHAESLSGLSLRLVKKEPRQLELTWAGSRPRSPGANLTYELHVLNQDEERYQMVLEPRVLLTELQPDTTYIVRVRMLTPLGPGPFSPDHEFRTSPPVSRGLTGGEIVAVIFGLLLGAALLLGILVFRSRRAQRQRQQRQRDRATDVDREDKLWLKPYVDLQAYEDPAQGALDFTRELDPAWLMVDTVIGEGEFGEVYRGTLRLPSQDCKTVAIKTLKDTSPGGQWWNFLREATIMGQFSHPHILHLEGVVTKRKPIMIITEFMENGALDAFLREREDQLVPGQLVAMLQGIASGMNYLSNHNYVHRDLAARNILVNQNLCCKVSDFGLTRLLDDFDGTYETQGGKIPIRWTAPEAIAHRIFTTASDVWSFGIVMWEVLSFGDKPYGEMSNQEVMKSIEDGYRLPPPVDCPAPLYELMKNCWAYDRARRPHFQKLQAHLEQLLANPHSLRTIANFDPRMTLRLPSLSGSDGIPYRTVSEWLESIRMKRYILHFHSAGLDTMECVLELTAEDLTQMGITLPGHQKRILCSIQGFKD", "procedure,_shortened": "as §1"}, "EphA5": {"target": "T12, EphA5 (Homo sapiens, UniProt P54756)", "T12 construct": "purchased Millipore, Inc. (KinaseProfiler service)", "procedure,_shortened": "as §1"}, "FGFR1": {"target": "T13, FGFR1 (Homo sapiens, UniProt P11362)", "T13 construct": "purchased Millipore, Inc. (KinaseProfiler service)", "T13 sequence (P11362 22-822)": "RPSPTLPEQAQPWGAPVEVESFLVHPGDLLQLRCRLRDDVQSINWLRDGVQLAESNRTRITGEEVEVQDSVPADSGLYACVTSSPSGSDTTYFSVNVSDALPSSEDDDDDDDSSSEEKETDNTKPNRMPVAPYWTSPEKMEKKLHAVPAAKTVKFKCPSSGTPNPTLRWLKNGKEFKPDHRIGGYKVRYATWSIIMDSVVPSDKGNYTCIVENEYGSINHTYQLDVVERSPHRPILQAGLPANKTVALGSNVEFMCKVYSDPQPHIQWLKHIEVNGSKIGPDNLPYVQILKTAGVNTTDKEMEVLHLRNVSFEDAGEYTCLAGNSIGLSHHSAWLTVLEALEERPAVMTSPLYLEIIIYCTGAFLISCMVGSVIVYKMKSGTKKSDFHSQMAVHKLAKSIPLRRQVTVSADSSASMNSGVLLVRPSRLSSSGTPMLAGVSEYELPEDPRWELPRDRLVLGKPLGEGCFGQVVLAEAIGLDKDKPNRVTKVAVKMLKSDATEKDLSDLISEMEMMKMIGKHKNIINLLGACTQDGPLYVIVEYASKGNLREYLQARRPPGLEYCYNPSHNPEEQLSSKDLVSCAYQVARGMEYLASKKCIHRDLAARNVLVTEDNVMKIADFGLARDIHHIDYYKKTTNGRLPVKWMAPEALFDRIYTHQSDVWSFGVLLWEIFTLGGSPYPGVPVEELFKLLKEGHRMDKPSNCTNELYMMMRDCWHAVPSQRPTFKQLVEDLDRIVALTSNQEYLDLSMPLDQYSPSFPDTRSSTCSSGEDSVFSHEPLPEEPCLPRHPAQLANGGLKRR", "procedure,_shortened": "as §1"}, "FGFR3": {"target": "T14, FGFR3 (Homo sapiens, UniProt P22607)", "T14 construct": "purchased Millipore, Inc. (KinaseProfiler service)", "procedure,_shortened": "as §1"}, "Fer": {"target": "T15, Fer (Homo sapiens, UniProt P16591)", "T15 construct": "purchased Millipore, Inc. (KinaseProfiler service)", "procedure,_shortened": "as §1"}, "Fms": {"target": "T16, Fms (Homo sapiens, UniProt P07333)", "T16 construct": "purchased Millipore, Inc. (KinaseProfiler service)", "procedure,_shortened": "as §1"}, "GRK6": {"target": "T17, GRK6 (Homo sapiens, UniProt P43250)", "T17 construct": "purchased Millipore, Inc. (KinaseProfiler service)", "procedure,_shortened": "as §1"}, "GSK3alpha": {"target": "T18, GSK3alpha (Homo sapiens, UniProt P49840)", "T18 construct": "purchased Millipore, Inc. (KinaseProfiler service)", "procedure,_shortened": "as §1"}, "IRAK4": {"target": "T19, IRAK4 (Homo sapiens, UniProt Q9NWZ3)", "T19 construct": "purchased Millipore, Inc. (KinaseProfiler service)", "procedure,_shortened": "as §1"}, "ITK": {"target": "T20, ITK (Homo sapiens, UniProt Q08881)", "T20 construct": "purchased Millipore, Inc. (KinaseProfiler service)", "procedure,_shortened": "as §1"}, "JNK2alpha2": {"target": "T21, JNK2alpha2 (Homo sapiens, UniProt P45984)", "T21 construct": "purchased Millipore, Inc. (KinaseProfiler service)", "procedure,_shortened": "as §1"}, "KIT": {"target": "T22, KIT (Homo sapiens, UniProt P10721)", "T22 construct": "purchased Millipore, Inc. (KinaseProfiler service)", "T22 sequence (P10721 26-976)": "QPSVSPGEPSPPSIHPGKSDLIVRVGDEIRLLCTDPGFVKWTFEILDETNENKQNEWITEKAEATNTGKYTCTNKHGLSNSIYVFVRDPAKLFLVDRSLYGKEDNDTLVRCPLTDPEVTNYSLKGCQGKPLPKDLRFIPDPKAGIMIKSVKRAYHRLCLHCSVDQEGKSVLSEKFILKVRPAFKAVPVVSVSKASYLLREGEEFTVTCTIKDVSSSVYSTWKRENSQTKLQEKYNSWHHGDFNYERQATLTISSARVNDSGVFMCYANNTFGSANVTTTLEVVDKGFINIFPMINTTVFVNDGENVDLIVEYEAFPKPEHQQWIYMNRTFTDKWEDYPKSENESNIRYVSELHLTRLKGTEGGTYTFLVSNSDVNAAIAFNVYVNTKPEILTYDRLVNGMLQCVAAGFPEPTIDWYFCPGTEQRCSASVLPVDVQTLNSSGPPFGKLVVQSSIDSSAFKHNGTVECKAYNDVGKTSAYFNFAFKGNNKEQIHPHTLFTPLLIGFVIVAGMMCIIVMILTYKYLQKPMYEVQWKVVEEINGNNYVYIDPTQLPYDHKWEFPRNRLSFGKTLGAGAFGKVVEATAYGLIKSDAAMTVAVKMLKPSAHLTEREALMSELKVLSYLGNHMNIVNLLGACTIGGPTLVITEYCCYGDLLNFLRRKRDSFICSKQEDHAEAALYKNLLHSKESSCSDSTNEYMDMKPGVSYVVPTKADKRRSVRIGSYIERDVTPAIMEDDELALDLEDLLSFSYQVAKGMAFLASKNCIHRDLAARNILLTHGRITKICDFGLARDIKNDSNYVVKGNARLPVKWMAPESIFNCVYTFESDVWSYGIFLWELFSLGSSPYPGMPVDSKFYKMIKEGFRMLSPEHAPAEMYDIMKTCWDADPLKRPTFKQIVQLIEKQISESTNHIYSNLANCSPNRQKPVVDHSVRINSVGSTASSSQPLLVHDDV", "procedure,_shortened": "as §1"}, "LKB1": {"target": "T23, LKB1 (Homo sapiens, UniProt Q15831)", "T23 construct": "purchased Millipore, Inc. (KinaseProfiler service)", "procedure,_shortened": "as §1"}, "MAP3K5": {"target": "T24, MAP3K5 (Homo sapiens, UniProt Q99683)", "T24 construct": "purchased Millipore, Inc. (KinaseProfiler service)", "procedure,_shortened": "as §1"}, "MARK1": {"target": "T25, MARK1 (Homo sapiens, UniProt Q9P0L2)", "T25 construct": "purchased Millipore, Inc. (KinaseProfiler service)", "procedure,_shortened": "as §1"}, "MINK": {"target": "T26, MINK (Homo sapiens, UniProt Q8N4C8)", "T26 construct": "purchased Millipore, Inc. (KinaseProfiler service)", "procedure,_shortened": "as §1"}, "MSSK1": {"target": "T27, MSSK1 (Homo sapiens, UniProt Q9UPE1)", "T27 construct": "purchased Millipore, Inc. (KinaseProfiler service)", "procedure,_shortened": "as §1"}, "MST1": {"target": "T28, MST1 (Homo sapiens, UniProt Q13043)", "T28 construct": "purchased Millipore, Inc. (KinaseProfiler service)", "procedure,_shortened": "as §1"}, "PAK2": {"target": "T29, PAK2 (Homo sapiens, UniProt Q13177)", "T29 construct": "purchased Millipore, Inc. (KinaseProfiler service)", "procedure,_shortened": "as §1"}, "PASK": {"target": "T30, PASK (Homo sapiens, UniProt Q96RG2)", "T30 construct": "purchased Millipore, Inc. (KinaseProfiler service)", "procedure,_shortened": "as §1"}, "PDGFRbeta": {"target": "T31, PDGFRbeta (Homo sapiens, UniProt P09619)", "T31 construct": "purchased Millipore, Inc. (KinaseProfiler service)", "T31 sequence (P09619 33-1106)": "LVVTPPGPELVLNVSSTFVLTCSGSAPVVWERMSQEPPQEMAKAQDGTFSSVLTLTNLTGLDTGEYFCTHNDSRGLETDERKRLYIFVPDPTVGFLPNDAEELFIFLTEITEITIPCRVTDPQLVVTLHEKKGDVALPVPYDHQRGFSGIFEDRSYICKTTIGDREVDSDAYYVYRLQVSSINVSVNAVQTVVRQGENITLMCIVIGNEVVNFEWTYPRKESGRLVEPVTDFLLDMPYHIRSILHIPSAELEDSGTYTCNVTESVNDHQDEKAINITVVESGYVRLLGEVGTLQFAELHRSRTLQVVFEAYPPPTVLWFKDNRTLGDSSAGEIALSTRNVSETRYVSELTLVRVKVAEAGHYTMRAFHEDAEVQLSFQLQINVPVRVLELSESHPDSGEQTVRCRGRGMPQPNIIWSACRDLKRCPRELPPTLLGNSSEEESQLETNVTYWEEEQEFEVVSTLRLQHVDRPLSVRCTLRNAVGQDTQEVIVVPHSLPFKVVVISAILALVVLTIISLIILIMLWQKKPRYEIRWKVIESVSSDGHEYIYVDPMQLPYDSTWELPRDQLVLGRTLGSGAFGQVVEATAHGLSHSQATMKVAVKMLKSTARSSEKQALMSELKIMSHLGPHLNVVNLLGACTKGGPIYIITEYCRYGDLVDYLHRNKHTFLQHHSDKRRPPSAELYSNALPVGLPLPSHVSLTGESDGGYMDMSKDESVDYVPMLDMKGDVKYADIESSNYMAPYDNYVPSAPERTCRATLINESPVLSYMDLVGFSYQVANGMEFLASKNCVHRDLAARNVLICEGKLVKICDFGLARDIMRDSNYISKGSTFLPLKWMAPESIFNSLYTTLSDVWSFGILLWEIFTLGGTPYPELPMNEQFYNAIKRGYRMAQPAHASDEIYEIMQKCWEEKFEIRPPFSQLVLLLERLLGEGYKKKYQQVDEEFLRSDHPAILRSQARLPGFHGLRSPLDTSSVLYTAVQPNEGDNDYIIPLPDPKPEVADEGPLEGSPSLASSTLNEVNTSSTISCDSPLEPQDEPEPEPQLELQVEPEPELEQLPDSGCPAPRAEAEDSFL", "procedure,_shortened": "as §1"}, "PKCdelta": {"target": "T32, PKCdelta (Homo sapiens, UniProt Q05655)", "T32 construct": "purchased Millipore, Inc. (KinaseProfiler service)", "procedure,_shortened": "as §1"}, "Plk1": {"target": "T33, Plk1 (Homo sapiens, UniProt P53350)", "T33 construct": "purchased Millipore, Inc. (KinaseProfiler service)", "procedure,_shortened": "as §1"}, "SGK1": {"target": "T34, SGK1 (Homo sapiens, UniProt O00141, S422D)", "T34 construct": "purchased Millipore, Inc. (KinaseProfiler service)", "procedure,_shortened": "as §1"}, "SIK": {"target": "T35, SIK (Homo sapiens, UniProt P57059)", "T35 construct": "purchased Millipore, Inc. (KinaseProfiler service)", "procedure,_shortened": "as §1"}, "SRC": {"target": "T36, SRC (Homo sapiens, UniProt P12931)", "T36 construct": "purchased Millipore, Inc. (KinaseProfiler service)", "procedure,_shortened": "as §1"}, "Txk": {"target": "T37, Txk (Homo sapiens, UniProt P42681)", "T37 construct": "purchased Millipore, Inc. (KinaseProfiler service)", "procedure,_shortened": "as §1"}, "ULK3": {"target": "T38, ULK3 (Homo sapiens, UniProt Q6PHR2)", "T38 construct": "purchased Millipore, Inc. (KinaseProfiler service)", "procedure,_shortened": "as §1"}, "c-RAF": {"target": "T39, c-RAF (Homo sapiens, UniProt P04049, Y340D/Y341D)", "T39 construct": "purchased Millipore, Inc. (KinaseProfiler service)", "procedure,_shortened": "as §1"}, "mTOR/FKBP12": {"target": "T40, mTOR/FKBP12 (Homo sapiens, UniProt P42345)", "T40 construct": "purchased Millipore, Inc. (KinaseProfiler service)", "T40 sequence (P42345 1362-2549 limits assumed)": "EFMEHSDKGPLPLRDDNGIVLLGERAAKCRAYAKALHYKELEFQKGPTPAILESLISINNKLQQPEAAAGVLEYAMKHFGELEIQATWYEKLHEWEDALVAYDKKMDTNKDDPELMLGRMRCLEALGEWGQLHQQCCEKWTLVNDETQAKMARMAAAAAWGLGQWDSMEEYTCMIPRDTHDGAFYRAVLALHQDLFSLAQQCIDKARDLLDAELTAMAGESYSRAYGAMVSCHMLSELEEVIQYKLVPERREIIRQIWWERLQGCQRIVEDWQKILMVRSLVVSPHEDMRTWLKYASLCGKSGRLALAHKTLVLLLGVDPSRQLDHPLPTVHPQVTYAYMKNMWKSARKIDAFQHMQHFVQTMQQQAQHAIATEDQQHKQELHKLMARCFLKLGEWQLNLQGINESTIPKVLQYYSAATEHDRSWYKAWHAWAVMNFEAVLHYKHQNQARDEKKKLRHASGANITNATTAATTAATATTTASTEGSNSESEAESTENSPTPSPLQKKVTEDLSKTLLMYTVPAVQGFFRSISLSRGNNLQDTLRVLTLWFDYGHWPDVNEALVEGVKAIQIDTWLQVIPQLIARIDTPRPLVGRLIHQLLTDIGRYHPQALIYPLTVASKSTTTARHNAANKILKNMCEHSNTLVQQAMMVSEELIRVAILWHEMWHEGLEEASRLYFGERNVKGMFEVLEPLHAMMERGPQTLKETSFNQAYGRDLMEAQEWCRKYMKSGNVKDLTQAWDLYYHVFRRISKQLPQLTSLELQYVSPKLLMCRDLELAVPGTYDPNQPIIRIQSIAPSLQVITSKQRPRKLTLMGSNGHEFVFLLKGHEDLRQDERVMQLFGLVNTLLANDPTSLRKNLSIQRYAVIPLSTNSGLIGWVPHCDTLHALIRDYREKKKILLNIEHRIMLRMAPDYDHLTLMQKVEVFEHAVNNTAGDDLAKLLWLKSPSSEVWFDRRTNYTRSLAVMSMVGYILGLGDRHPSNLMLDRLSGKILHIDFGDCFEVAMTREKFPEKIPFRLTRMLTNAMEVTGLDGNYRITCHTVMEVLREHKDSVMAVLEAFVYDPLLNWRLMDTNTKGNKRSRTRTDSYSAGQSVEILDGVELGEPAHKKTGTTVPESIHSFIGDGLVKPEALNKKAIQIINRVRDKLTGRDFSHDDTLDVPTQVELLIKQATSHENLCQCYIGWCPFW", "procedure,_shortened": "as §1"}}}
{"smiles": "Cc1c(-c2cnn(C)c2)nn(-c2ccccc2)c1NC(=O)Nc1sc(C(F)(F)F)nc1-c1ccccc1", "note": "[Example 2, 1-(1′,4-dimethyl-1-phenyl-1H,1′H-[3,4′-bipyrazol]-5-yl)-3-(4-phenyl-2-(trifluoromethyl)thiazol-5-yl)urea]", "values": [{"measurement": "Avg POC", "setting": "AKT2", "result": 171.5, "unit": "POC"}, {"measurement": "Avg POC", "setting": "AKT3", "result": 116, "unit": "POC"}, {"measurement": "Avg POC", "setting": "BTK", "result": 123, "unit": "POC"}, {"measurement": "Avg POC", "setting": "CAMK1", "result": 95.5, "unit": "POC"}, {"measurement": "Avg POC", "setting": "CAMK2g", "result": 103, "unit": "POC"}, {"measurement": "Avg POC", "setting": "CDK5/p35", "result": 111, "unit": "POC"}, {"measurement": "Avg POC", "setting": "CK1_y", "result": 103, "unit": "POC"}, {"measurement": "Avg POC", "setting": "CK2alpha2", "result": 104, "unit": "POC"}, {"measurement": "Avg POC", "setting": "DAPK1", "result": 126.5, "unit": "POC"}, {"measurement": "Avg POC", "setting": "DCAMKL2", "result": 210.5, "unit": "POC"}, {"measurement": "Avg POC", "setting": "DDR2", "result": 98, "unit": "POC"}, {"measurement": "Avg POC", "setting": "EphA1", "result": 81.5, "unit": "POC"}, {"measurement": "Avg POC", "setting": "EphA5", "result": 118.5, "unit": "POC"}, {"measurement": "Avg POC", "setting": "FGFR1", "result": 80.5, "unit": "POC"}, {"measurement": "Avg POC", "setting": "FGFR3", "result": 117, "unit": "POC"}, {"measurement": "Avg POC", "setting": "Fer", "result": 78.5, "unit": "POC"}, {"measurement": "Avg POC", "setting": "Fms", "result": 89.5, "unit": "POC"}, {"measurement": "Avg POC", "setting": "GRK6", "result": 98.5, "unit": "POC"}, {"measurement": "Avg POC", "setting": "GSK3alpha", "result": 147.5, "unit": "POC"}, {"measurement": "Avg POC", "setting": "IRAK4", "result": 112, "unit": "POC"}, {"measurement": "Avg POC", "setting": "ITK", "result": 125.5, "unit": "POC"}, {"measurement": "Avg POC", "setting": "JNK2alpha2", "result": 97.5, "unit": "POC"}, {"measurement": "Avg POC", "setting": "KIT", "result": 102.5, "unit": "POC"}, {"measurement": "Avg POC", "setting": "LKB1", "result": 96.5, "unit": "POC"}, {"measurement": "Avg POC", "setting": "MAP3K5", "result": 107.5, "unit": "POC"}, {"measurement": "Avg POC", "setting": "MARK1", "result": 107, "unit": "POC"}, {"measurement": "Avg POC", "setting": "MINK", "result": 117.5, "unit": "POC"}, {"measurement": "Avg POC", "setting": "MSSK1", "result": 132, "unit": "POC"}, {"measurement": "Avg POC", "setting": "MST1", "result": 100.5, "unit": "POC"}, {"measurement": "Avg POC", "setting": "PAK2", "result": 98.5, "unit": "POC"}, {"measurement": "Avg POC", "setting": "PASK", "result": 113, "unit": "POC"}, {"measurement": "Avg POC", "setting": "PDGFRbeta", "result": 162, "unit": "POC"}, {"measurement": "Avg POC", "setting": "PKCdelta", "result": 97, "unit": "POC"}, {"measurement": "Avg POC", "setting": "Plk1", "result": 103.5, "unit": "POC"}, {"measurement": "Avg POC", "setting": "SGK1", "result": 139.5, "unit": "POC"}, {"measurement": "Avg POC", "setting": "SIK", "result": 145, "unit": "POC"}, {"measurement": "Avg POC", "setting": "SRC", "result": 110.5, "unit": "POC"}, {"measurement": "Avg POC", "setting": "Txk", "result": 163, "unit": "POC"}, {"measurement": "Avg POC", "setting": "ULK3", "result": 90, "unit": "POC"}, {"measurement": "Avg POC", "setting": "c-RAF", "result": 96.5, "unit": "POC"}, {"measurement": "Avg POC", "setting": "mTOR/FKBP12", "result": 103, "unit": "POC"}]}
